Tested on: GBA mutant human fibroblasts GM008760
Test: Glucosylceramide lowering assay
Format: cell-based
Details: Homo sapiens, Fibroblast, 96 h; 10 μM test compound, 4 days culture; GlcCer (C16:0)/Cer (C16:0) molar ratio of test compound group relative to DMSO control group x100; smaller value = glucosylceramide lowering
Method in brief: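 Fibroblasts with mutant GBA were treated with 10 μM compound for 4 days. Lipids extracted in ethanol/isopropanol with deuterated internal standard; GlcCer (C16:0) and Cer (C16:0) quantified by RapidFire-MS/MS. Value is GlcCer/Cer ratio relative to DMSO control ×100.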

Row | Compound | activity at 10 µM [%]
1 | COc1ccccc1-n1cc(C)n2ncc(C(=O)Nc3ccc(N4CCOCC4)cc3)c2c1=O [Example 311, 5-(2-methoxyphenyl)-7-methyl-N-(4-(morpholin-4-yl)phenyl)-4-oxo-4,5-dihydropyrazolo[1,5-a]pyrazine-3-carboxamide] | 54
2 | Cc1cn(C)c(=O)c2c(C(=O)N3CCC(Oc4ccc(C(F)(F)F)cc4)CC3)cnn12 [Example 313, 5,7-dimethyl-3-((4-(4-(trifluoromethyl)phenoxy)piperidin-1-yl)carbonyl)pyrazolo[1,5-a]pyrazin-4(5H)-one] | 52
3 | Cc1cn(CC#N)c(=O)c2c(C(=O)N3CCC(Oc4ccc(Cl)cc4)CC3)cnn12 [Example 330, {3-[4-(4-chlorophenoxy)piperidine-1-carbonyl]-7-methyl-4-oxopyrazolo[1,5-a]pyrazin-5(4H)-yl}acetonitrile] | 68
4 | Cc1cn(-c2ccccc2OCC(F)(F)F)c(=O)c2c(C(=O)Nc3ccc(N4CCOCC4)cc3)cnn12 [Example 334, 7-methyl-N-[4-(morpholin-4-yl)phenyl]-4-oxo-5-[2-(2,2,2-trifluoroethoxy)phenyl]-4,5-dihydropyrazolo[1,5-a]pyrazine-3-carboxamide] | 27
5 | Cc1cn(-c2ccccc2OCC(F)(F)F)c(=O)c2c(C(=O)N3CCC(Oc4ccc(Cl)cc4)CC3)cnn12 [Example 335, 3-[4-(4-chlorophenoxy)piperidine-1-carbonyl]-7-methyl-5-[2-(2,2,2-trifluoroethoxy)phenyl]pyrazolo[1,5-a]pyrazin-4(5H)-one] | 68
6 | Cc1cn(-c2ccc(F)cc2OCC(F)(F)F)c(=O)c2c(C(=O)Nc3ccc(N4CCOCC4)cc3)cnn12 [Example 336, 5-[4-fluoro-2-(2,2,2-trifluoroethoxy)phenyl]-7-methyl-N-[4-(morpholin-4-yl)phenyl]-4-oxo-4,5-dihydropyrazolo[1,5-a]pyrazine-3-carboxamide] | 42
7 | Cc1cn(-c2ccccc2OCC(F)(F)F)c(=O)c2c(C(=O)Nc3ccc(OCC(F)(F)F)nc3)cnn12 [Example 337, 7-methyl-4-oxo-5-[2-(2,2,2-trifluoroethoxy)phenyl]-N-[6-(2,2,2-trifluoroethoxy)pyridin-3-yl]-4,5-dihydropyrazolo[1,5-a]pyrazine-3-carboxamide] | 37
8 | Cc1cn(-c2ccccc2OCC(F)(F)F)c(=O)c2c(C(=O)Nc3ccc(OC(F)F)nc3)cnn12 [Example 338, N-[6-(difluoromethoxy)pyridin-3-yl]-7-methyl-4-oxo-5-[2-(2,2,2-trifluoroethoxy)phenyl]-4,5-dihydropyrazolo[1,5-a]pyrazine-3-carboxamide] | 40
9 | CCCCO[C@H]1CC[C@H](NC(=O)c2cnn3c(C)cn(-c4ccccc4OCC(F)(F)F)c(=O)c23)CC1 [Example 339, N-[trans-4-butoxycyclohexyl]-7-methyl-4-oxo-5-[2-(2,2,2-trifluoroethoxy)phenyl]-4,5-dihydropyrazolo[1,5-a]pyrazine-3-carboxamide] | 30
10 | Cc1cn(-c2ccccc2OCC(F)(F)F)c(=O)c2c(C(=O)Nc3ccc(C(C)(C)O)cc3)cnn12 [Example 340, N-[4-(2-hydroxypropan-2-yl)phenyl]-7-methyl-4-oxo-5-[2-(2,2,2-trifluoroethoxy)phenyl]-4,5-dihydropyrazolo[1,5-a]pyrazine-3-carboxamide] | 33
11 | Cc1cn(-c2ccccc2OCC(F)(F)F)c(=O)c2c(C(=O)Nc3ccc(C4CC4)nc3)cnn12 [Example 341, N-(6-cyclopropylpyridin-3-yl)-7-methyl-4-oxo-5-[2-(2,2,2-trifluoroethoxy)phenyl]-4,5-dihydropyrazolo[1,5-a]pyrazine-3-carboxamide] | 32
12 | Cc1cn(-c2ccccc2OCC(F)(F)F)c(=O)c2c(C(=O)Nc3ccc(C#N)nc3)cnn12 [Example 342, N-(6-cyanopyridin-3-yl)-7-methyl-4-oxo-5-[2-(2,2,2-trifluoroethoxy)phenyl]-4,5-dihydropyrazolo[1,5-a]pyrazine-3-carboxamide] | 28
13 | Cc1cn(-c2ccccc2OCC(F)(F)F)c(=O)c2c(C(=O)Nc3ccc(C#N)cn3)cnn12 [Example 343, N-(5-cyanopyridin-2-yl)-7-methyl-4-oxo-5-[2-(2,2,2-trifluoroethoxy)phenyl]-4,5-dihydropyrazolo[1,5-a]pyrazine-3-carboxamide] | 23
14 | Cc1cn(C)c(=O)n2c(C(=O)NC(C)(C)c3ccc(Cl)cc3)cnc12 [Example 347, N-[2-(4-chlorophenyl)propan-2-yl]-6,8-dimethyl-5-oxo-5,6-dihydroimidazo[1,2-c]pyrimidine-3-carboxamide] | 44
15 | COc1ccccc1-n1cc(C)c2ncc(C(=O)Nc3ccc(N4CCOCC4)cc3)n2c1=O [Example 350, 6-(2-methoxyphenyl)-8-methyl-N-[4-(morpholin-4-yl)phenyl]-5-oxo-5,6-dihydroimidazo[1,2-c]pyrimidine-3-carboxamide] | 54

From patent publication US11459325B2, “Heterocyclic compound” (Takeda Pharmaceutical Company Limited, priority 2018, dated 2022)
